Source: US5254577A, “Aminomethyloxooxazolidinyl arylbenzene derivatives useful as antibacterial agents” (The Du Pont Merck Pharmaceutical Company, priority 1992, dated 1993)
≈ marks a conversion by molar mass, not a printed value. Where two headings read alike, the source gives them in different places.

Legend:
Escherichia coli = test: In vitro broth microdilution, 24-hour minimal inhibitory concentration (MIC); format: cell-based; details: Mueller-Hinton broth; for MIC: read-out: Minimum Inhibitory Concentration
Description: (§1) A standard microdilution method (National Committee for Clinical Standards. Tentative standard M7-T. Standard methods for dilution antimicrobial susceptibility tests for bacteria that grow aerobically. National Committee for Clinical Laboratory Standards, Villanova, Pa. 1982) with Mueller-Hinton broth is used to determine the 24-hour minimal inhibitory concentrations (MIC's) for test strains of Staphylococcus aureus and Escherichia coli.

Staphylococcus aureus [1] = test: as above; format: cell-based; details: Mueller-Hinton broth; for MIC: read-out: Minimum Inhibitory Concentration
Description: as §1

Staphylococcus aureus [2] = test: In vivo activity against Staphylococcus aureus in an acute lethal mouse model; details: mice infected intraperitoneally, dosed 1 h and 4 h post-infection, survivors on seventh day
Method: The in vivo potency of these compounds is exemplified by the data summarized in Table X. Determinations of in vivo efficacy are performed by inoculating mice intraperitoneally with cultures of the infecting organism diluted to produce 100% mortality in control animals within twenty-four hours. The culture of S. aureus used to infect the animals was diluted to the required bacterial density using 5% aqueous hog gastric mucin. The compounds are dissolved or suspended in 0.25% aqueous Methocel® (Methocel®: Hydroxypropyl Methylcullulose, E15 Premium, Dow Chemical Company) for oral administration or sterile distilled water containing 5% dimethylsulfoxide (Fisher Scientific Company, Fairlawn, N.J.) for subcutaneous administration. The mice are dosed at one hour and at four hours post-infection. Mortality is recorded daily until test determination seven days post infection. The number of survivors in each treatment group on the seventh day after infection is used in the calculation of the ED50, the dose of compound that protects 50% of the mice (Litchfield,J. T. and Wildoxon. A simulated method for evaluating dose-effect experiments. J. Pharmacol Exp. Ther., 98:99-113, 1949).

[3] = Staphylococcus aureus, sc, 168 h, Subcutaneous Administration, read-out: ED50
[4] = Staphylococcus aureus, 168 h, Oral Administration, read-out: ED50

SMILES: CC(=O)NC[C@H]1CN(c2ccc(-c3ccc(CN(CCO)CCO)cc3)cc2)C(=O)O1 [Example 50]
- MIC (Escherichia coli): > 128 µg/mL
- MIC (Staphylococcus aureus [1]): 0.5 µg/mL (≈ 1.17 µM)
- ED50 (Staphylococcus aureus [2]; [3]): 6.5 mg/kg

SMILES: CC(=O)NC[C@H]1CN(c2ccc(-c3ccc(C(=O)CCN(C)C)cc3)cc2)C(=O)O1 [Example 57, (l)-N-[3-(4-(4'-(3-N,N-dimethylaminopropionyl)phenyl)phenyl)-2-oxooxazolidin-5-ylmethyl]acetamide]
- MIC (Escherichia coli): > 128 µg/mL
- MIC (Staphylococcus aureus [1]): 1 µg/mL (≈ 2.44 µM)
- ED50 (Staphylococcus aureus [2]; [4]): 18 mg/kg
- ED50 (Staphylococcus aureus [2]; [3]): 10 mg/kg

SMILES: CC(=O)NC[C@H]1CN(c2ccc(-c3ccc(C(=O)CCN4CCN(C)CC4)cc3)cc2)C(=O)O1 [Example 60]
- MIC (Escherichia coli): > 128 µg/mL
- MIC (Staphylococcus aureus [1]): 1 µg/mL (≈ 2.15 µM)
- ED50 (Staphylococcus aureus [2]; [4]): 30 mg/kg
- ED50 (Staphylococcus aureus [2]; [3]): 5.5 mg/kg

SMILES: CC(=O)NC[C@H]1CN(c2ccc(-c3ccc(C(O)CCN4CCN(C)CC4)cc3)cc2)C(=O)O1 (stereo partly drawn) [Example 61]
- MIC (Escherichia coli): > 128 µg/mL
- MIC (Staphylococcus aureus [1]): 2 µg/mL (≈ 4.29 µM)
- ED50 (Staphylococcus aureus [2]; [4]): 47.4 mg/kg
- ED50 (Staphylococcus aureus [2]; [3]): 2.7 mg/kg

SMILES: CC(=O)NC[C@H]1CN(c2ccc(-c3ccc(C(=O)C(C)CN4CCN(C)CC4)cc3)cc2)C(=O)O1 (stereo partly drawn) [Example 62]
- MIC (Escherichia coli): > 128 µg/mL
- MIC (Staphylococcus aureus [1]): 2 µg/mL (≈ 4.18 µM)
- ED50 (Staphylococcus aureus [2]; [4]): 51.9 mg/kg
- ED50 (Staphylococcus aureus [2]; [3]): 10 mg/kg

SMILES: C=C(C)C(=O)c1ccc(-c2ccc(N3C[C@H](CNC(C)=O)OC3=O)cc2)cc1 [Example 63]
- MIC (Escherichia coli): > 128 µg/mL
- MIC (Staphylococcus aureus [1]): 0.25 µg/mL (≈ 0.661 µM)
- ED50 (Staphylococcus aureus [2]; [4]): > 90 mg/kg
- ED50 (Staphylococcus aureus [2]; [3]): > 90 mg/kg

SMILES: CC(=O)NC[C@H]1CN(c2ccc(-c3ccc(C(O)C(C)CN4CCN(C)CC4)cc3)cc2)C(=O)O1 (stereo partly drawn) [Example 64]
- MIC (Escherichia coli): > 128 µg/mL
- MIC (Staphylococcus aureus [1]): 4 µg/mL (≈ 8.32 µM)
- ED50 (Staphylococcus aureus [2]; [4]): 50 mg/kg
- ED50 (Staphylococcus aureus [2]; [3]): 11 mg/kg

SMILES: CSc1ccc(-c2ccc(N3C[C@H](CNC(C)=O)OC3=O)cc2)cc1 [Example 67, (l)-N-[3-(4-(4'-methylthiophenyl)phenyl)-2-oxooxazolidin-5-ylmethyl]acetamide]
- MIC (Escherichia coli): > 128 µg/mL
- MIC (Staphylococcus aureus [1]): 0.25 µg/mL (≈ 0.701 µM)
- ED50 (Staphylococcus aureus [2]; [4]): 4.5 mg/kg
- ED50 (Staphylococcus aureus [2]; [3]): 30 mg/kg

SMILES: CC(=O)NCC1CN(c2ccc(-c3ccc(S(C)(=O)=O)cc3)cc2)C(=O)O1 (stereo not drawn) [Example 69, (l)-N-[3-(4-(4'-Methylsulfonylphenyl)phenyl)-2-oxooxazolidin-5-ylmethyl]acetamide]
- Minimum Inhibitory Concentration (Escherichia coli): > 128 µg/mL
- Minimum Inhibitory Concentration (Staphylococcus aureus [1]): 0.25 µg/mL
- ED50 (Staphylococcus aureus [2]; Oral Administration, 10080 min): 4 mg/kg
- ED50 (Staphylococcus aureus [2]; Subcutaneous Administration, 10080 min): 1.2 mg/kg

SMILES: CCc1cccc(-c2ccc(N3C[C@H](CNC(C)=O)OC3=O)cc2)c1 [Example 70]
- MIC (Escherichia coli): > 128 µg/mL
- MIC (Staphylococcus aureus [1]): 2 µg/mL (≈ 5.91 µM)
- ED50 (Staphylococcus aureus [2]; [4]): 17 mg/kg
- ED50 (Staphylococcus aureus [2]; [3]): 10 mg/kg

SMILES: CC(=O)NC[C@H]1CN(c2ccc(-c3ccccc3C)cc2)C(=O)O1 [Example 71]
- MIC (Escherichia coli): > 128 µg/mL
- MIC (Staphylococcus aureus [1]): 2 µg/mL (≈ 6.17 µM)
- ED50 (Staphylococcus aureus [2]; [4]): 51.9 mg/kg
- ED50 (Staphylococcus aureus [2]; [3]): > 90 mg/kg

SMILES: CC(=O)NC[C@H]1CN(c2ccc(-c3cccc(N)c3)cc2)C(=O)O1 [Example 73]
- MIC (Escherichia coli): > 128 µg/mL
- MIC (Staphylococcus aureus [1]): 0.5 µg/mL (≈ 1.54 µM)
- ED50 (Staphylococcus aureus [2]; [4]): 11.8 mg/kg
- ED50 (Staphylococcus aureus [2]; [3]): 5 mg/kg

SMILES: CC(=O)NC[C@H]1CN(c2ccc(-c3cccc(N(C)C)c3)cc2)C(=O)O1 [Example 74]
- MIC (Escherichia coli): > 128 µg/mL
- MIC (Staphylococcus aureus [1]): 8 µg/mL (≈ 22.6 µM)
- ED50 (Staphylococcus aureus [2]; [3]): 17.1 mg/kg

SMILES: CC(=O)NC[C@H]1CN(c2ccc(-c3ccncc3)cc2)C(=O)O1 [Example 85, (l)-N-[3-(4-(4-Pyridyl)phenyl)-2-oxooxazolidin-5-ylmethyl]acetamide]
- MIC (Escherichia coli): > 128 µg/mL
- MIC (Staphylococcus aureus [1]): < 0.13 µg/mL
- ED50 (Staphylococcus aureus [2]; [4]): 1.3 mg/kg
- ED50 (Staphylococcus aureus [2]; [3]): 0.5 mg/kg

SMILES: CC(=O)NC[C@H]1CN(c2ccc(-c3ccccn3)cc2)C(=O)O1 [Example 86]
- MIC (Escherichia coli): > 128 µg/mL
- MIC (Staphylococcus aureus [1]): 2 µg/mL (≈ 6.42 µM)
- ED50 (Staphylococcus aureus [2]; [3]): 15.5 mg/kg

SMILES: CC(=O)NC[C@H]1CN(c2ccc(-c3cccc[n+]3[O-])cc2)C(=O)O1 [Example 87]
- MIC (Escherichia coli): > 128 µg/mL
- MIC (Staphylococcus aureus [1]): 32 µg/mL (≈ 97.8 µM)
- ED50 (Staphylococcus aureus [2]; [4]): 16.1 mg/kg
- ED50 (Staphylococcus aureus [2]; [3]): 9.8 mg/kg

SMILES: CC(=O)NC[C@H]1CN(c2ccc(-c3cccnc3)cc2)C(=O)O1 [Example 88]
- MIC (Escherichia coli): > 128 µg/mL
- MIC (Staphylococcus aureus [1]): < 0.13 µg/mL
- ED50 (Staphylococcus aureus [2]; [4]): 1.6 mg/kg
- ED50 (Staphylococcus aureus [2]; [3]): 0.5 mg/kg

SMILES: CC(=O)NC[C@H]1CN(c2ccc(-c3ccc[n+]([O-])c3)cc2)C(=O)O1 [Example 89]
- MIC (Escherichia coli): > 128 µg/mL
- MIC (Staphylococcus aureus [1]): 2 µg/mL (≈ 6.11 µM)
- ED50 (Staphylococcus aureus [2]; [4]): 2 mg/kg
- ED50 (Staphylococcus aureus [2]; [3]): < 3.3 mg/kg

SMILES: CC(=O)NC[C@H]1CN(c2ccc(-c3cc(O)ccc3O)cc2)C(=O)O1 [Example 113, (l)-N-[3-(4-(2',5'-Dihydroxyphenyl)phenyl)-2-oxooxazolidin-5-ylmethyl]acetamide]
- MIC (Escherichia coli): > 128 µg/mL
- MIC (Staphylococcus aureus [1]): 16 µg/mL (≈ 46.7 µM)
- ED50 (Staphylococcus aureus [2]; [4]): > 90 mg/kg
- ED50 (Staphylococcus aureus [2]; [3]): 68.3 mg/kg

SMILES: CCc1ccc(-c2ccc(N3C[C@H](CNC(C)=O)OC3=O)cc2)cc1 [Example 114, (l)-N-[3-(4-(4'-Ethylphenyl)phenyl)-2-oxooxazolidin-5-ylmethyl]acetamide]
- MIC (Escherichia coli): > 128 µg/mL
- MIC (Staphylococcus aureus [1]): 0.5 µg/mL (≈ 1.48 µM)
- ED50 (Staphylococcus aureus [2]; [4]): 8.1 mg/kg
- ED50 (Staphylococcus aureus [2]; [3]): > 100 mg/kg

SMILES: CC(=O)NCC1CN(c2ccc(-c3ccc([N+](C)(C)[O-])cc3)cc2)C(=O)O1 (stereo not drawn) [Example 116]
- MIC (Escherichia coli): > 128 µg/mL
- MIC (Staphylococcus aureus [1]): 16 µg/mL (≈ 43.3 µM)
- ED50 (Staphylococcus aureus [2]; [3]): 6.4 mg/kg

SMILES: CC(=O)NC[C@H]1CN(c2ccc(-c3cccc([N+](=O)[O-])c3)cc2)C(=O)O1 [Example 119]
- MIC (Escherichia coli): > 128 µg/mL
- MIC (Staphylococcus aureus [1]): < 0.13 µg/mL
- ED50 (Staphylococcus aureus [2]; [4]): 6.2 mg/kg
- ED50 (Staphylococcus aureus [2]; [3]): 5 mg/kg

SMILES: CC(=O)NC[C@H]1CN(c2ccc(-c3ccno3)cc2)C(=O)O1 [Example 130, (l)-N-[3-[4-(5-Isoxazolyl)phenyl]-2-oxooxazolidin-5-ylmethyl]acetamide]
- MIC (Escherichia coli): > 128 µg/mL
- MIC (Staphylococcus aureus [1]): 1 µg/mL (≈ 3.32 µM)
- ED50 (Staphylococcus aureus [2]; [4]): 6 mg/kg
- ED50 (Staphylococcus aureus [2]; [3]): 6 mg/kg

SMILES: CC(=O)NC[C@H]1CN(c2ccc(-c3csc(C)n3)cc2)C(=O)O1 [Example 132]
- MIC (Escherichia coli): > 128 µg/mL
- MIC (Staphylococcus aureus [1]): 4 µg/mL (≈ 12.1 µM)
- ED50 (Staphylococcus aureus [2]; [3]): 17 mg/kg

SMILES: CC(=O)NC[C@H]1CN(c2ccc(-c3csc(N)n3)cc2)C(=O)O1 [Example 134]
- MIC (Escherichia coli): > 128 µg/mL
- MIC (Staphylococcus aureus [1]): 8 µg/mL (≈ 24.1 µM)
- ED50 (Staphylococcus aureus [2]; [4]): 56.5 mg/kg
- ED50 (Staphylococcus aureus [2]; [3]): 47 mg/kg

SMILES: CC(=O)NC[C@H]1CN(c2ccc(-c3ccnc(N)n3)cc2)C(=O)O1 [Example 135]
- MIC (Escherichia coli): > 128 µg/mL
- MIC (Staphylococcus aureus [1]): 4 µg/mL (≈ 12.2 µM)
- ED50 (Staphylococcus aureus [2]; [4]): 68 mg/kg

SMILES: CC(=O)NC[C@H]1CN(c2ccc(-c3cnco3)cc2)C(=O)O1 [Example 136]
- MIC (Escherichia coli): > 128 µg/mL
- MIC (Staphylococcus aureus [1]): 1 µg/mL (≈ 3.32 µM)
- ED50 (Staphylococcus aureus [2]; [4]): 14.8 mg/kg
- ED50 (Staphylococcus aureus [2]; [3]): 51.9 mg/kg
